Test results from patent US4988687A, “Cephalosporin derivatives, and antibacterial agents” (priority 1986, dated 1991).

Legend:
Ps. maltophilia GN 12873 = assay: agar plate dilution method, MIC against Ps. maltophilia GN 12873; type: cell-based, Pseudomonas maltophilia; details: Stenotrophomonas maltophilia, GN12873; Ps. maltophilia GN 12873 (lactamase-producing strain); 10^6 CFU/ml, 37° C., 16 hours; read-out: Minimum Inhibitory Concentration (MIC)
Protocol: (§1) The in vitro antibacterial activities of the compounds of the present invention against various microorganisms, were measured by the following agar plate dilution method. One platinum loopfull of each test microorganism incubated overnight in Mueller Hinton broth, was inoculated to Mueller Hinton agar (inoculum size: 10^6 CFU/ml) Such culture media containing various antibiotics in various concentrations were prepared After incubation at 37° C. for 16 hours, the minimum inhibitory concentrations (MIC: μg/ml) were measured. As comparative compounds, cefotaxime, oeftazidime and the compounds disclosed in Example 2 of Japanese Unexamined Patent Publication No. 215690/1985 e.g. sodium 7-[2-(2-aminothiazol-4-yl)-2-ethoxyiminoacetamido]-3-(1-carboxylatemethylpyridinio-4-yl)thiomethyl-3-cephem-4-carboxylate (hereinafter referred to simply as "Reference Example A") were employed.

Ps. aeruginosa AK 109 = assay: agar plate dilution method, MIC against Ps. aeruginosa AK 109; type: cell-based; details: Pseudomonas aeruginosa, AK109; Ps. aeruginosa AK 109; 10^6 CFU/ml, 37° C., 16 hours; read-out: Minimum Inhibitory Concentration (MIC)
Protocol: as §1

K. oxytoca GN10650 = assay: agar plate dilution method, MIC against K. oxytoca GN10650; type: cell-based; details: Klebsiella oxytoca; K. oxytoca GN10650 (lactamase-producing strain); 10^6 CFU/ml, 37° C., 16 hours; read-out: Minimum Inhibitory Concentration (MIC)
Protocol: as §1

E. coli CSH2 (RK1) = assay: agar plate dilution method, MIC against E. coli CSH2 (RK1); type: cell-based; details: Escherichia coli, 16 h, read-out: Minimum Inhibitory Concentration (MIC)
Protocol: as §1

K. pneumoniae No. 42 = assay: agar plate dilution method, MIC against K. pneumoniae No. 42; type: cell-based; details: Klebsiella pneumoniae; K. pneumoniae No. 42 (lactamase-producing strain); 10^6 CFU/ml, 37° C., 16 hours; read-out: Minimum Inhibitory Concentration (MIC)
Protocol: as §1

Ps. aeruginosa AKR17 = assay: agar plate dilution method, MIC against Ps. aeruginosa AKR17; type: cell-based; details: Pseudomonas aeruginosa; Ps. aeruginosa AKR17; 10^6 CFU/ml, 37° C., 16 hours; read-out: Minimum Inhibitory Concentration (MIC)
Protocol: as §1

A. calcoaceticus No. 4 = assay: agar plate dilution method, MIC against A. calcoaceticus No. 4; type: cell-based; details: Acinetobacter calcoaceticus, NO.4, 16 h, read-out: Minimum Inhibitory Concentration (MIC)
Protocol: as §1

S. marcescens No. 16-2 = assay: agar plate dilution method, MIC against S. marcescens No. 16-2; type: cell-based; details: Serratia marcescens, NO.162, 16 h, read-out: Minimum Inhibitory Concentration (MIC)
Protocol: as §1

P. vulgaris No. 33 = assay: agar plate dilution method, MIC against P. vulgaris No. 33; type: cell-based; details: Proteus vulgaris; P. vulgaris No. 33 (lactamase-producing strain); 10^6 CFU/ml, 37° C., 16 hours; read-out: Minimum Inhibitory Concentration (MIC)
Protocol: as §1

M. morganii GN5407 = assay: agar plate dilution method, MIC against M. morganii GN5407; type: cell-based; details: Morganella morganii; M. morganii GN5407 (lactamase-producing strain); 10^6 CFU/ml, 37° C., 16 hours; read-out: Minimum Inhibitory Concentration (MIC)
Protocol: as §1

C. freundii GN346/16 = assay: agar plate dilution method, MIC against C. freundii GN346/16; type: cell-based; details: Citrobacter freundii, GN346, 16 h, read-out: Minimum Inhibitory Concentration (MIC)
Protocol: as §1

E. cloacae 963 = assay: agar plate dilution method, MIC against E. cloacae 963; type: cell-based; details: Enterobacter cloacae, 963, 16 h, read-out: Minimum Inhibitory Concentration (MIC)
Protocol: as §1

M. luteus ATCC9341 = assay: agar plate dilution method, MIC against M. luteus ATCC9341; type: cell-based; details: Micrococcus luteus; M. luteus ATCC9341; 10^6 CFU/ml, 37° C., 16 hours; read-out: Minimum Inhibitory Concentration (MIC)
Protocol: as §1

Ps. aeruginosa IFO3445 = assay: agar plate dilution method, MIC against Ps. aeruginosa IFO3445; type: cell-based; details: Pseudomonas aeruginosa, IFO3445, 16 h, read-out: Minimum Inhibitory Concentration (MIC)
Protocol: as §1

K. pneumoniae PCI-602 = assay: agar plate dilution method, MIC against K. pneumoniae PCI-602; type: cell-based; details: Klebsiella pneumoniae, PCI602, 16 h, read-out: Minimum Inhibitory Concentration (MIC)
Protocol: as §1

Ps. cepacia 23 = assay: agar plate dilution method, MIC against Ps. cepacia 23; type: cell-based, Pseudomonas cepacia; details: Burkholderia cepacia, 23, 16 h, read-out: Minimum Inhibitory Concentration (MIC)
Protocol: as §1

S. aureus BB5703 = assay: agar plate dilution method, MIC against S. aureus BB5703; type: cell-based; details: Staphylococcus aureus, BB5703, 16 h, read-out: Minimum Inhibitory Concentration (MIC)
Protocol: as §1

S. marcescens IAM 1184 = assay: agar plate dilution method, MIC against S. marcescens IAM 1184; type: cell-based; details: Serratia marcescens, IAM1184; S. marcescens IAM 1184; 10^6 CFU/ml, 37° C., 16 hours; read-out: Minimum Inhibitory Concentration (MIC)
Protocol: as §1

P. vulgaris HX-19 = assay: agar plate dilution method, MIC against P. vulgaris HX-19; type: cell-based; details: Proteus vulgaris, HX19, 16 h, read-out: Minimum Inhibitory Concentration (MIC)
Protocol: as §1

S. aureus 209P NIHJ-JC1 = assay: agar plate dilution method, MIC against S. aureus 209P NIHJ-JC1; type: cell-based; details: Staphylococcus aureus; S. aureus 209P NIHJ-JC1; 10^6 CFU/ml, Mueller Hinton agar, 37° C., 16 hours; read-out: Minimum Inhibitory Concentration (MIC)
Protocol: as §1

C. freundii GN346 = assay: agar plate dilution method, MIC against C. freundii GN346; type: cell-based; details: Citrobacter freundii; C. freundii GN346 (lactamase-producing strain); 10^6 CFU/ml, 37° C., 16 hours; read-out: Minimum Inhibitory Concentration (MIC)
Protocol: as §1

S. epidermidis IAM12012 = assay: agar plate dilution method, MIC against S. epidermidis IAM12012; type: cell-based; details: Staphylococcus epidermidis, IAM12012, 16 h, read-out: Minimum Inhibitory Concentration (MIC)
Protocol: as §1

E. coli GN5482 = assay: agar plate dilution method, MIC against E. coli GN5482; type: cell-based; details: Escherichia coli; E. coli GN5482 (lactamase-producing strain); 10^6 CFU/ml, 37° C., 16 hours; read-out: Minimum Inhibitory Concentration (MIC)
Protocol: as §1

E. coli NIHJ JC2 = assay: agar plate dilution method, MIC against E. coli NIHJ JC2; type: cell-based; details: Escherichia coli, NIHJJC2; E. coli NIHJ JC2; 10^6 CFU/ml, 37° C., 16 hours; read-out: Minimum Inhibitory Concentration (MIC)
Protocol: as §1

S. aureus JS1 = assay: agar plate dilution method, MIC against S. aureus JS1; type: cell-based; details: Staphylococcus aureus, JS1, 16 h, read-out: Minimum Inhibitory Concentration (MIC)
Protocol: as §1

E. coli CSH(RE45) = assay: agar plate dilution method, MIC against E. coli CSH(RE45); type: cell-based; details: Escherichia coli, 16 h, read-out: Minimum Inhibitory Concentration (MIC)
Protocol: as §1

E. cloacae Nek 39 = assay: agar plate dilution method, MIC against E. cloacae Nek 39; type: cell-based; details: Enterobacter cloacae, NEK39; E. cloacae Nek 39 (lactamase-producing strain); 10^6 CFU/ml, 37° C., 16 hours; read-out: Minimum Inhibitory Concentration (MIC)
Protocol: as §1

Nc1nc(/C(=N/Oc2ccccc2)C(=O)NC2C(=O)N3C(C(=O)[O-])=C(CSc4cc[n+](CC(=O)O)cc4)CSC23)cs1 (stereo not drawn) [Example 7, sodium 7-[2-(2-aminothiazol-4-yl)-2-phenoxyiminoacetamido]-3-(1-carboxylatemethylpyridinio-4-yl)thiomethYl-3-cephem-4-carboxylate (syn-isomer)]
MIC (Ps. maltophilia GN 12873): > 100 mg/L | MIC (Ps. aeruginosa AK 109): 25 mg/L | MIC (K. oxytoca GN10650): 25 mg/L | MIC (E. coli CSH2 (RK1)): 0.78 mg/L | MIC (K. pneumoniae No. 42): 3.12 mg/L | MIC (Ps. aeruginosa AKR17): > 100 mg/L | MIC (A. calcoaceticus No. 4): 3.12 mg/L | MIC (S. marcescens No. 16-2): 12.5 mg/L | MIC (P. vulgaris No. 33): 0.78 mg/L | MIC (M. morganii GN5407): 0.78 mg/L | MIC (C. freundii GN346/16): 1.56 mg/L | MIC (E. cloacae 963): 3.12 mg/L | MIC (M. luteus ATCC9341): 0.1 mg/L | MIC (Ps. aeruginosa IFO3445): 12.5 mg/L | MIC (K. pneumoniae PCI-602): 0.025 mg/L | MIC (Ps. cepacia 23): 3.12 mg/L | MIC (S. aureus BB5703): 3.12 mg/L | MIC (S. marcescens IAM 1184): 0.78 mg/L | MIC (P. vulgaris HX-19): < 0.006 mg/L | MIC (S. aureus 209P NIHJ-JC1): 0.39 mg/L | MIC (C. freundii GN346): 50 mg/L | MIC (S. epidermidis IAM12012): 0.2 mg/L | MIC (E. coli GN5482): 1.56 mg/L | MIC (E. coli NIHJ JC2): 0.78 mg/L | MIC (S. aureus JS1): 12.5 mg/L | MIC (E. coli CSH(RE45)): 0.78 mg/L | MIC (E. cloacae Nek 39): 12.5 mg/L
